In PubChem BioAssay AID1259411 (Chemical Carcinogenesis Research Information System (CCRIS), 2018):
Calls of active or inactive are those of the source. How the calls were made is not given here.

System: rodent carcinogenicity bioassays, tumor incidence
Assay: CCRIS carcinogenicity studies
Method in brief: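 Archive of carcinogenicity, mutagenicity, tumor promotion and tumor inhibition results drawn from journals, NCI reports and other sources, expert-reviewed; covers 1985-2011 and is no longer updated.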

## CCn1cc(C(=O)O)c(=O)c2cc3c(cc21)OCO3
Species: MOUSE, Strain/Sex: ICR/FEMALE, Route: ORAL, Dose: 0, 50, 150, 500 PPM IN DIET FOR 78 WK (STUDY DURATION: 78 WK), Dose: 0, 50, 150, 500 PPM IN DIET FOR 78 WK (STUDY DURATION: 78 WK)
  carcinogen call: inactive; negative
Species: MOUSE, Strain/Sex: ICR/MALE, Route: ORAL, Dose: 0, 50, 150, 500 PPM IN DIET FOR 78 WK (STUDY DURATION: 78 WK), Dose: 0, 50, 150, 500 PPM IN DIET FOR 78 WK (STUDY DURATION: 78 WK)
  carcinogen call: inactive; negative
Species: RAT, Strain/Sex: WISTAR/FEMALE, Route: ORAL, Dose: 0, 30, 100, 300, 1000 PPM IN DIET FOR 104 WK (STUDY DURATION: 104 WK), Dose: 0, 30, 100, 300, 1000 PPM IN DIET FOR 104 WK (STUDY DURATION: 104 WK)
  carcinogen call: inactive; negative
Species: RAT, Strain/Sex: WISTAR/MALE, Route: ORAL, Dose: 0, 30, 100, 300, 1000 PPM IN DIET FOR 104 WK (STUDY DURATION: 104 WK), Dose: 0, 30, 100, 300, 1000 PPM IN DIET FOR 104 WK (STUDY DURATION: 104 WK), Tumor Site: Type of Lesion: TESTIS: BENIGN LEYDIG CELL TUMOR
  carcinogen call: active; positive

## Nc1cc([N+](=O)[O-])ccc1NC(CO)(CO)CO
Species: RAT, Strain/Sex: SPRAGUE-DAWLEY/FEMALE, Route: ORAL, Dose: 0, 0.2, 0.6, 2% IN DIET OF MATED AND NONMATED RATS FOR UP TO 6 MO (STUDY DURATION: 6 MO), Dose: 0, 0.2, 0.6, 2% IN DIET OF MATED AND NONMATED RATS FOR UP TO 6 MO (STUDY DURATION: 6 MO), Tumor Site: Type of Lesion: MAMMARY GLAND: TUMOR
  carcinogen call: active; positive
Species: RAT, Strain/Sex: SPRAGUE-DAWLEY/MALE, Route: ORAL, Dose: 0, 0.2, 0.6, 2% IN DIET FOR UP TO 6 MO (STUDY DURATION: 6 MO), Dose: 0, 0.2, 0.6, 2% IN DIET FOR UP TO 6 MO (STUDY DURATION: 6 MO)
  carcinogen call: inactive; negative

## CN(N=O)C(CCCO)c1cccnc1 (configuration not stated)
Species: MOUSE, Strain/Sex: STRAIN-A/FEMALE, Route: INTRAPERITONEAL, Dose: 0, 200 UMOL TOTAL DOSE ADMINISTERED IN SUBDOSES 3/WK FOR 7 WK (STUDY DURATION: 37 WK)
  carcinogen call: inactive; negative

## COc1ccc([C@H]2O[C@H]2C)cc1
Species: MOUSE, Strain/Sex: B6C3F1/MALE, Route: INTRAPERITONEAL, Dose: 0, 0.25, 0.5 UMOL/G BW ONCE (STUDY DURATION: 10-11 MONTHS), Dose: 0, 0.25, 0.5 UMOL/G BW ONCE (STUDY DURATION: 10-11 MONTHS), Tumor Site: Type of Lesion: LIVER: HEPATOMA
  carcinogen call: active; positive
Species: MOUSE, Strain/Sex: CD-1/FEMALE, Route: DERMAL, Dose: 0, 5 UMOL 1X/WK FOR 3 WK BEGINNING 24 HR POST FIRST TPA DOSE (2.5 UG IN 0.1 ML ACETONE), FOLLOWED BY 2.5 UG TPA IN 0.1 M, Tumor Site: Type of Lesion: SKIN: PAPILLOMA
  carcinogen call: active; positive

## CCCO
Species: DOG, Strain/Sex: BEAGLE/FEMALE, Route: GAVAGE, Dose: 0, 30, 180 MG/KG/D 7 D/WK FOR 52 WK (STUDY DURATION: 52 WK), Dose: 0, 30, 180 MG/KG/D 7 D/WK FOR 52 WK (STUDY DURATION: 52 WK)
  carcinogen call: inactive; negative
Species: DOG, Strain/Sex: BEAGLE/MALE, Route: GAVAGE, Dose: 0, 30, 180 MG/KG/D 7 D/WK FOR 52 WK (STUDY DURATION: 52 WK), Dose: 0, 30, 180 MG/KG/D 7 D/WK FOR 52 WK (STUDY DURATION: 52 WK)
  carcinogen call: inactive; negative
Species: MONKEY, Strain/Sex: MACACA ARCTODIES/MALE, Route: ORAL, Dose: 0, 0.25, 2.5, 25 MG/KG 1/D FOR 54 WK (STUDY DURATION: 54 WK), Dose: 0, 0.25, 2.5, 25 MG/KG 1/D FOR 54 WK (STUDY DURATION: 54 WK)
  carcinogen call: inactive; negative
Species: MOUSE, Strain/Sex: SWISS/FEMALE, Route: GAVAGE, Dose: 0, 50, 500 MG/KG/D FOR 18 MO (STUDY DURATION: 18 MO), Dose: 0, 50, 500 MG/KG/D FOR 18 MO (STUDY DURATION: 18 MO)
  carcinogen call: inactive; negative
Species: MOUSE, Strain/Sex: SWISS/MALE, Route: GAVAGE, Dose: 0, 50, 500 MG/KG/D FOR 18 MO (STUDY DURATION: 18 MO), Dose: 0, 50, 500 MG/KG/D FOR 18 MO (STUDY DURATION: 18 MO)
  carcinogen call: inactive; negative
Species: RAT, Strain/Sex: SPRAGUE-DAWLEY/FEMALE, Route: GAVAGE, Dose: 0, 50, 500 MG/KG 1/D FOR 24 MO (STUDY DURATION: 24 MO), Dose: 0, 50, 500 MG/KG 1/D FOR 24 MO (STUDY DURATION: 24 MO)
  carcinogen call: inactive; negative
Species: RAT, Strain/Sex: SPRAGUE-DAWLEY/MALE, Route: GAVAGE, Dose: 0, 50, 500 MG/KG 1/D FOR 24 MO (STUDY DURATION: 24 MO), Dose: 0, 50, 500 MG/KG 1/D FOR 24 MO (STUDY DURATION: 24 MO)
  carcinogen call: inactive; negative

## C[C@]12C=CC(=O)C=C1CC[C@@H]1[C@@H]2[C@@H](O)C[C@@]2(C)[C@H]1CC[C@]2(O)C(=O)COC(=O)CCCc1ccc(N(CCCl)CCCl)cc1
Species: RAT, Strain/Sex: SPRAGUE-DAWLEY/FEMALE, Route: GAVAGE, Dose: 0, 12 MG/KG ADMINISTERED 1, 2, 4.5 OR 9 TIMES PER MO FOR 18 MO TO GIVE MEDIAN TOTAL DOSES OF 216, 432, 938, 1872 MG/KG (, Dose: 0, 12 MG/KG ADMINISTERED 1, 2, 4.5 OR 9 TIMES PER MO FOR 18 MO TO GIVE MEDIAN TOTAL DOSES OF 216, 432, 938, 1872 MG/KG (, Tumor Site: Type of Lesion: EAR CANAL: SQUAMOUS-CELL CARCINOMA
  carcinogen call: active; positive

## COc1cc(C(C)(C)C)c(O)c(C(C)(C)C)c1
Species: HAMSTER, Strain/Sex: SYRIAN/MALE, Route: ORAL, Dose: 1% IN DIET FOR 24 WK (STUDY DURATION: 24 WK)
  carcinogen call: inactive; negative

## c1ccc2c(c1)ccc1ccccc12
Species: RAT, Strain/Sex: OSBORNE-MENDEL/FEMALE, Route: INTRAPULMONARY IMPLANT, Dose: 0, 1, 3, 10 MG IN BEESWAX AND TRIOCTANOIN IMPLANTED IN LUNG (STUDY DURATION: 141 WK), Dose: 0, 1, 3, 10 MG IN BEESWAX AND TRIOCTANOIN IMPLANTED IN LUNG (STUDY DURATION: 141 WK)
  carcinogen call: inactive; negative

## O=[N+]([O-])c1ccc2nc[nH]c2c1
Species: MOUSE, Strain/Sex: B6C3F1/FEMALE, Route: ORAL, Dose: 0, 0.12, 0.24% OF DIET, Dose: 0, 0.12, 0.24% OF DIET, Tumor Site: Type of Lesion: LIVER: HEPATOCELLULAR CARCINOMA OR HEPATOCELLULAR ADENOMA
  carcinogen call: active; positive
Species: MOUSE, Strain/Sex: B6C3F1/MALE, Route: ORAL, Dose: 0, 0.12, 0.24% OF DIET, Dose: 0, 0.12, 0.24% OF DIET, Tumor Site: Type of Lesion: LIVER: HEPATOCELLULAR CARCINOMA OR HEPATOCELLULAR ADENOMA
  carcinogen call: active; positive
Species: RAT, Strain/Sex: F344/FEMALE, Route: ORAL, Dose: 0, 0.12, 0.5% OF DIET, Dose: 0, 0.12, 0.5% OF DIET
  carcinogen call: inactive; negative
Species: RAT, Strain/Sex: F344/MALE, Route: ORAL, Dose: 0, 0.12, 0.5% OF DIET, Dose: 0, 0.12, 0.5% OF DIET
  carcinogen call: inactive; negative

## CC(N)Cc1ccccc1 (configuration not stated)
Species: MOUSE, Strain/Sex: B6C3F1/FEMALE, Route: ORAL, Dose: 0, 20, 100 PPM IN DIET FOR 103 WK (STUDY DURATION: 105 WK), Dose: 0, 20, 100 PPM IN DIET FOR 103 WK (STUDY DURATION: 105 WK)
  carcinogen call: inactive; negative
Species: MOUSE, Strain/Sex: B6C3F1/MALE, Route: ORAL, Dose: 0, 20, 100 PPM IN DIET FOR 103 WK (STUDY DURATION: 105 WK), Dose: 0, 20, 100 PPM IN DIET FOR 103 WK (STUDY DURATION: 105 WK)
  carcinogen call: inactive; negative
Species: RAT, Strain/Sex: F344/FEMALE, Route: ORAL, Dose: 0, 20, 100 PPM IN DIET FOR 103 WK (STUDY DURATION: 105 WK), Dose: 0, 20, 100 PPM IN DIET FOR 103 WK (STUDY DURATION: 105 WK)
  carcinogen call: inactive; negative
Species: RAT, Strain/Sex: F344/MALE, Route: ORAL, Dose: 0, 20, 100 PPM IN DIET FOR 103 WK (STUDY DURATION: 105 WK), Dose: 0, 20, 100 PPM IN DIET FOR 103 WK (STUDY DURATION: 105 WK)
  carcinogen call: inactive; negative
